# Values of other authors, collected in US20090131395A1, “BIPHENYLAZETIDINONE CHOLESTEROL ABSORPTION INHIBITORS” (MICROBIA, INC., priority 2005, published 2009).
# Molecular target: T1, ileal Na+/bile acid cotransporter (Homo sapiens, UniProt Q12908)
# T1 sequence (Q12908 1-348): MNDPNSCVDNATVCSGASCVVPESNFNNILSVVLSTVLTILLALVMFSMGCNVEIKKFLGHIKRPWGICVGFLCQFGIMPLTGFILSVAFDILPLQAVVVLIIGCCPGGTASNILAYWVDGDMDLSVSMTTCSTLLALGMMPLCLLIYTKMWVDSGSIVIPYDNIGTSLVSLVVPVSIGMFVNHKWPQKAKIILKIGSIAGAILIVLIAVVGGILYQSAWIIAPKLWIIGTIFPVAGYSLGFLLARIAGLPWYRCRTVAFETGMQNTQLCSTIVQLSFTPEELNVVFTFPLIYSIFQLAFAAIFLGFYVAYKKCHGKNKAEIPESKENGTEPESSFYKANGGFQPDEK
# Conditions: in vivo
structure (smiles),measurement,value
"O=C1[C@H](CC[C@H](O)c2ccc(F)cc2)[C@@H](c2ccc(O)cc2)N1c1ccc(F)cc1 [ezetimibe, (3R,4S)-1-(4-fluorophenyl)-3-[(3S)-3-(4-fluorophenyl)-3-hydroxypropyl]-4-(4-hydroxyphenyl)azetidin-2-one]",inhibition of the absorption of taurocholic acid,does not inhibit the absorption of taurocholic acid
